# Experimental data from patent publication US20260258003A1, “SLACK-ACTIVATING COMPOUNDS AND THEIR MEDICAL USE” (Johann Wolfgang Goethe-Universität Frankfurt am Main, priority 2023, published 2026).
# Read-outs that look alike come from different tables or passages of the source.
# Experiments:
# [1] = In vivo pharmacokinetic study, plasma and brain levels by LC-MS; design: species or system mice
# Description: The compounds pharmacokinetic properties were examined in vivo by administering the compounds intraperitoneally (i.p.) at 1 mg/kg in mice, and determining plasma and brain levels over 8 h by LC-MS measurements.
# The pharmacokinetic study was performed by Pharmacelsus (Saarbrücken, Germany). In total 27 male C57BL/6 mice (8 weeks old, 23-31 g body weight, purchased from Janvier Labs, France) were used. The animals were housed in a temperature-controlled room (20-24° C.) and maintained in a 12 h light/dark cycle. Food and water were available ad libitum. All experimental procedures were approved by and conducted in accordance with the regulations of the local Animal Welfare authorities (Landesamt für Gesundheit und Verbraucherschutz, Abteilung Lebensmittel-und Veterinärwesen, Saarbrücken).
# The animals were divided into 3 groups (9 mice/group) and a cassette dosing was performed, in which the mice received a single dose of 1 mg/kg body weight of 3-4 compounds (dissolved in 0.9% NaCl containing 20% cyclodextrine) i.p. simultaneously. From each animal 2 blood samples were collected from the retrobulbar venous plexus under short isoflurane anesthesia (at 0.25 h and 0.5 h from 3 mice; at 1 h and 2 h from 3 mice; and at 4 h and 8 h from 3 mice). Li-heparin was used as anticoagulant. Plasma samples were obtained by centrifugation for 10 min at 3000× g and 4° C. Immediately after the last blood sample the animal was sacrificed by cervical dislocation and the brain was removed and frozen in liquid nitrogen. Plasma and brain samples were stored at −80° C. until LC-MS analysis.
# For all other compounds, the HPLC system consisted of a U-HPLC pump (Accela) and an AS Open auto sampler (Thermo Fisher Scientific, USA), and mass spectrometry was performed on a Q Exactive (Orbitrap) accurate mass spectrometer equipped with a heated electrospray (H-ESI) interface (Thermo Fisher Scientific, USA) connected to a PC running the standard software Chromeleon 7.2. For all compounds, the HPLC pump flow rate was set to 600 μl/min and the compounds were separated on an analytical column with a suitable pre-column. The pharmacokinetic analysis was performed applying a non-compartment model using the Kinetica 5.0 software (Thermo Scientific, Waltham, USA). All given parameters were obtained by trapezoid area calculation.
# [2] = BBB-specific parallel artificial membrane permeability assay (PAMPA-BBB); assay type: in vitro ADME, porcine; conditions: pH 7.4, 37° C.; for MR (membrane retention factor): 4 h; for Papp at 4 h, 100 μM: pig, Pe in cm/s, read-out: BBB permeability log Pe (converted)
# Description: BBB permeability was estimated using a BBB-specific parallel artificial membrane permeability assay (PAMPA-BBB). […] Five v/v % DMSO in PBS (Phosphate Buffer Saline; 0.01 M, pH=7.4) buffer solutions of each compound were prepared with the final nominal concentration of 100 μM. These solutions were treated with ultrasonic waves and then centrifuged in case the test compounds were insoluble at this concentration. Proceeding with saturated, homogenous solutions (CD(0)) is sufficient because log Pe only depends on relative concentrations. A BBB specific PAMPA system was used to determine the log Pe and membrane retention (MR). Each well of the top plate (MultiScreen […]10; Millipore; Billerica, US) was carefully coated with 5 μL of porcine polar brain lipid extract (PBLE; Avanti Polar Lipids, Birmingham, US) solution, then 150 μL of the CD(0) solution was put on the membrane. The bottom plate (MultiScreen MDCPN2M50; Millipore, Billerica, US) was filled with […] PBS. PBLE solution consisted of 1 mg PBLE per 10 μL n-dodecane and 30 μL n-hexane. The donor plate was put on the acceptor plate and covered with a wet paper tissue and a plate lid. The sandwich system was incubated at 37° C. for 4 h. The plates were shaken and incubated in a Thermo ScientificTM MaxQTM 4000 Benchtop Orbital Shaker (Gel, Belgium). After the incubation, PAMPA sandwich plates were separated and compound concentrations in donor (CD(t)) and acceptor (CA(t)) solutions were determined by UPLC-MS (Waters, Milford, US). The concentration of the donor solution at zero time point (CD(0)) was determined using the supernatant after centrifugation.
# [3] = male, C57BL/6, mouse, in vivo, ip, 1 mg/kg
# [4] = mice, 1 mg/kg i.p., cassette dosing, plasma
"% AUCextra [1, 3] [%]","AUC(0-inf) [1, 3] [ng·h/mL]","AUC(0-t) [1, 3] [ng·h/mL]","CL/F [1, 3] [mL/min/kg]","Cmax [1, 3] [ng/mL]","Cz [1, 3] [ng/mL]","Tmax [1, 3] [min]","Vd/F [1, 3] [L/kg]","half-life [1, 3] [min]","tz [1, 3] [h]",MR (membrane retention factor) [2],"Papp at 4 h, 100 μM [2] [×10⁻⁶ cm/s]",SMILES,other results
19.3,84,67.8,199,25.6,3.3,15,58.5,204,8,0.64,26.3,"CN1CCN(C2=Nc3ccccc3Oc3ccc(C(F)(F)F)cc32)CC1 [Compound 2, 11-(4-Methylpiperazin-1-yl)-2-(trifluoromethyl)dibenzo[b,f][1,4]oxazepine]",–
5.0,58.3,55.4,286,32.3,1.0,30,50.1,120,8,0.5,38,"CN1CCCN(C2=Nc3ccccc3Oc3ccc(C(F)(F)F)cc32)CC1 [Compound 3, 11-(4-Methyl-1,4-diazepan-1-yl)-2-(trifluoromethyl)dibenzo[b,f][1,4]oxazepine]",–
11.4,122,108,137,40,4.1,30,27.7,138,8,0.74,21.4,"CN1CCN(C2=Nc3cc(F)ccc3Oc3ccc(C(F)(F)F)cc32)CC1 [Compound 4, 8-Fluoro-11-(4-methylpiperazin-1-yl)-2-(trifluoromethyl)dibenzo[b,f][1,4]oxazepine]",–
1.3,50.2,49.6,332,44,0.4,15,33.1,72,8,0.03,39.8,"OCCN1CCN(C2=Nc3ccccc3Oc3ccc(Cl)cc32)CC1 [Compound 5, 2-(4-(2-Chlorodibenzo[b,f][1,4]oxazepin-11-yl)piperazin-1-yl) ethan-1-ol]",–
0.9,71.9,71.2,232,87.2,0.3,15,31.4,96,8,0.19,53.7,"OCCOCCN1CCN(C2=Nc3ccccc3Sc3ccc(Cl)cc32)CC1 [Compound 7, 2-(2-(4-(2-Chlorodibenzo[b,f][1,4]thiazepin-11-yl)piperazin-1-yl)ethoxy) ethan-1-ol]",–
20.7,851,675,19.6,316,31.4,15,6.58,234,8,–,26.3,"O=C(O)COCCN1CCN(C2=Nc3ccccc3Oc3ccc(C(F)(F)F)cc32)CC1 [Compound 8, 2-(2-(4-(2-(Trifluoromethyl)dibenzo[b,f][1,4]oxazepin-11-yl)piperazin-1-yl)ethoxy) acetic acid]",–
0.6,123,123,135,242,0.3,15,21.1,108,8,−0.10,35.5,"O=C(O)COCCN1CCCN(C2=Nc3ccccc3Oc3ccc(C(F)(F)F)cc32)CC1 [Compound 9, 2-(2-(4-(2-(Trifluoromethyl)dibenzo[b,f][1,4]oxazepin-11-yl)-1,4-diazepan-1-yl)ethoxy) acetic acid]",–
–,–,–,–,–,–,–,–,–,–,0.02,–,"O=c1nc(CN2CCN(C3=Nc4ccccc4Oc4ccc(Cl)cc43)CC2)[nH][nH]1 [Compound 10, 5-((4-(2-Chlorodibenzo[b,f][1,4]oxazepin-11-yl)piperazin-1-yl)methyl)-1,2-dihydro-3H-1,2,4-triazol-3-one]","Kp [1, 3]: ≤ 0.3"
–,–,–,–,–,–,–,–,–,–,0.33,–,"CN1CCN(C2=Nc3ccccc3Oc3ccc(Cl)cc32)CC1 [Loxapine, 2-chloro-11-(4-methylpiperazin-1-yl)dibenzo[b,f][1,4]oxazepine, reference compound]","AUC(0-inf) ([1]; male, C57BL/6, mouse, ip, mice, 1 mg/kg i.p., cassette dosing, plasma, read-out: AUC (0-inf)): 116 ng·h/mL; AUC(0-t) ([1]; male, C57BL/6, mouse, ip, mice, 1 mg/kg i.p., cassette dosing, plasma, read-out: AUC(0-tz)): 105 ng·h/mL; CL/F ([1]; male, C57BL/6, mouse, ip, mice, 1 mg/kg i.p., cassette dosing, plasma, read-out: CL/f (converted)): 144 mL/min/kg; Cmax ([1]; male, C57BL/6, mouse, ip, mice, 1 mg/kg i.p., cassette dosing, plasma, read-out: Cmax): 41.6 ng/mL; Vd/F ([1]; male, C57BL/6, mouse, ip, mice, 1 mg/kg i.p., cassette dosing, plasma, read-out: Vz/f): 28.8 L/kg; half-life ([1]; male, C57BL/6, mouse, ip, mice, 1 mg/kg i.p., cassette dosing, plasma, read-out: t1/2z (terminal elimination half-life) (converted)): 138 min; Tmax ([1]; male, C57BL/6, mouse, ip, mice, 1 mg/kg i.p., cassette dosing, plasma, read-out: tmax): 15 min; % AUCextra [1, 4]: 9.2%; Cz [1, 4]: 3.2 ng/mL; tz [1, 4]: 8 h"

SMILES,"% AUCextra [1, 3] [%]","AUC(0-inf) [1, 3] [ng·h/mL]","AUC(0-t) [1, 3] [ng·h/mL]","CL/F [1, 3] [mL/min/kg]","Cmax [1, 3] [ng/mL]","Cz [1, 3] [ng/mL]","Tmax [1, 3] [min]","Vd/F [1, 3] [L/kg]","half-life [1, 3] [min]","tz [1, 3] [h]",MR (membrane retention factor) [2],"Papp at 4 h, 100 μM [2] [×10⁻⁶ cm/s]",other results
"O=C(O)COCCN1CCN(C2=Nc3ccccc3Oc3ccc(Cl)cc32)CC1 [Compound 6, 2-(2-(4-(2-Chlorodibenzo[b,f][1,4]oxazepin-11-yl)piperazin-1-yl)ethoxy) acetic acid]",10.1,467,420,35.7,240,13.3,15,7.56,144,8,–,24.5,"Kp ([1]; male, C57BL/6, mouse, in vivo, ip, mice, 1 mg/kg i.p., read-out: brain/plasma ratio): ≤ 0.3"
